Values of other authors in article PMC11235333, “Glucagon-like peptide-1 stimulates acute secretion of pro-atrial natriuretic peptide from the isolated, perfused pig lung exposed to warm ischemia” (Frontiers in Transplantation, 2022).

Test system: lipopolyssacharide induced endotoxemia in rats
Settings: lipopolysaccharide induced endotoxemia, after 3 h, ref Yanay et al.
Experimental: In studies with 24 h EVLP and transplantation of donor lungs, a rise of IL-8 concentration, proportional to the duration of warm ischaemia, was observed ([78], [79]). In the majority of studies investigating the anti-inflammatory effects of GPL-1 in the lungs, treatment was given more than 6 ...

Substance: exendin-4
- Inflammatory cytokines: decreased IL-1α, IL-1β, IL-6, TNFα and IFNγ but not IL-10
